The assay relates to Adult Bovine Aortic Endothelial (ABAE) cell line. As to the kind of experiment: Antiproliferative activity in ABAE cell line, PROTOCOL 3 (4 day assay). The class given is cell-based. The procedure: The antiproliferative activity of the compounds of Formula I in an Adult Bovine Aortic Endothelial (ABAE) cell line and in Human Tumor cell lines is evaluated in three similar assays that measure growth inhibition. The assays are identified as follows:
PROTOCOL 1,2,and 3 are described in greater detail hereinbelow. In general, according to PROTOCOLS 1 and 2, the target ABAE and/or Human Tumor cells are exposed to the compounds of Formula I for 48 hours. PROTOCOL 3 exposes ABAE cells to the compounds for 4 days. A detailed description of the protocols is as follows:
Antiproliferative Activity in Adult Bovine Aortic Endothelial (ABAE) Cell Line
ABAE cells are grown in DMEMmedia (Mediatech, Washington, D.C.) supplemented with 10% calf serum (Hyclone). ABAE cells are plated in 24-well dishes at 8,000 cells/well, followed by the addition of increasing concentrations of 7-(hydrogen or di(C1 -C4)alkylamino)-8-halogen-9-(substituted)-6-demethyl-6-deoxytetracycline. After four days, the cells are detached and counted. […] The growth inhibition (I) as % of control is calculated as follows: [formula] wherein: Nc is the number of cells in untreated wells;
Nt is the number of cells in treated wells;
No is the number of plated cells.
IC50 of growth inhibition is determined from the sets of I values plotted by Kaleidograph software (Abelbeck Software).
In addition FIG. 1, presents the dose response curve for the compound of Example 10 for the above ABAE cell line obtained by using PROTOCOL 3.

The text below walks through data of US5567693A, “Method for inhibiting angiogenesis, proliferation of endothelial or tumor cells and tumor growth” (American Cyanamid Company, priority 1994, dated 1996).

Where a name gives a salt, the structure may show the parent alone.

Turning to `CN(C)[C@@H]1C(O)=C(C(N)=O)C(=O)[C@@]2(O)C(O)=C3C(=O)c4c(cc(Cl)c(NC(=O)CN5CCCCC5)c4O)CC3CC12` (stereo partly drawn) [Example 10, 7S-(7α,10aα)]-N-[9-(Aminocarbonyl)-3-chloro-7-(dimethylamino)-5,5a,6,6a,7,10,10a,12-octahydro-1,8,10a,11-tetrahydroxy-10,12-dioxo-2-naphthacenyl]-1-piperidineacetamide dihydrochloride], the “activity upon incubation with cells” value (4 day assay (PROTOCOL 3)) is “retains its activity”. The IC50 (Bos taurus, 96 h, PROTOCOL 3, 4 day assay, read-out: inhibits 50% of cell growth) is roughly 0.4 µg/mL.
